Key:
[1] = molecular target: Sodium-dependent dopamine transporter (Homo sapiens, UniProt Q01959); assay: Inhibition of DAT
[2] = molecular target: Sodium-dependent serotonin transporter (Homo sapiens, UniProt P31645); assay: Inhibition of SERT
[3] = molecular target: Sodium-dependent noradrenaline transporter (Homo sapiens, UniProt P23975); assay: Inhibition of NET
Sequence of Sodium-dependent noradrenaline transporter (P23975 whole entry): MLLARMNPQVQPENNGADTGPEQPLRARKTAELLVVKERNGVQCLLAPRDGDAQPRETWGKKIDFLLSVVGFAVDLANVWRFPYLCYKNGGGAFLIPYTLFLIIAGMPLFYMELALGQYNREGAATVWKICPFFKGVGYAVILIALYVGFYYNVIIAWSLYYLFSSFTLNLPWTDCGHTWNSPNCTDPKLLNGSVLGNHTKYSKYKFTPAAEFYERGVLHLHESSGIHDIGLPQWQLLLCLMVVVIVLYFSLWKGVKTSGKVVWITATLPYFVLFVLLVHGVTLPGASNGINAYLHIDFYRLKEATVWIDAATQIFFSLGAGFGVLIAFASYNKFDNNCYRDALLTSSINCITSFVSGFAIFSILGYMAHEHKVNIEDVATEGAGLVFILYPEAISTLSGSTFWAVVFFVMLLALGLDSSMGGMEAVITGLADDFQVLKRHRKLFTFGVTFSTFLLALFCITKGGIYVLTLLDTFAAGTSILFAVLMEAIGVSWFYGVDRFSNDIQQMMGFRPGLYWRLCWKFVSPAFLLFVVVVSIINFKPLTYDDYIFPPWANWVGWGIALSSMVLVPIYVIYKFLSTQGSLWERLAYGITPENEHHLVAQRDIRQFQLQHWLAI

Sequence of Sodium-dependent serotonin transporter (P31645 whole entry): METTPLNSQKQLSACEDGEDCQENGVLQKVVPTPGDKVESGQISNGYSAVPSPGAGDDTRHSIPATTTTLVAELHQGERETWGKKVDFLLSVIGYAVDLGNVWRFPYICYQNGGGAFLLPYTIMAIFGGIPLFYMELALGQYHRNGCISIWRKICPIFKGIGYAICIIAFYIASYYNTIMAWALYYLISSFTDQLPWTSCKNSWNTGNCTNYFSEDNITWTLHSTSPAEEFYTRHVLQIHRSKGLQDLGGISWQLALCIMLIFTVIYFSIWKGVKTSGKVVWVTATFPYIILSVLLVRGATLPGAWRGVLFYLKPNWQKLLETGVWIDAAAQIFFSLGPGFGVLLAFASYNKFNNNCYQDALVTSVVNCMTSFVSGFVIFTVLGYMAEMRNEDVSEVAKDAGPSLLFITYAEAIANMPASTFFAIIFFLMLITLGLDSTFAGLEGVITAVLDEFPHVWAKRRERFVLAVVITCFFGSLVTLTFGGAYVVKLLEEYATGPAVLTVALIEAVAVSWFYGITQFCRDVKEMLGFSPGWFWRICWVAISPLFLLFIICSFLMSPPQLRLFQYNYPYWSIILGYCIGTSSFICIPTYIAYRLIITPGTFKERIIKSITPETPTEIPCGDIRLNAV
Sequence of Sodium-dependent dopamine transporter (Q01959 whole entry): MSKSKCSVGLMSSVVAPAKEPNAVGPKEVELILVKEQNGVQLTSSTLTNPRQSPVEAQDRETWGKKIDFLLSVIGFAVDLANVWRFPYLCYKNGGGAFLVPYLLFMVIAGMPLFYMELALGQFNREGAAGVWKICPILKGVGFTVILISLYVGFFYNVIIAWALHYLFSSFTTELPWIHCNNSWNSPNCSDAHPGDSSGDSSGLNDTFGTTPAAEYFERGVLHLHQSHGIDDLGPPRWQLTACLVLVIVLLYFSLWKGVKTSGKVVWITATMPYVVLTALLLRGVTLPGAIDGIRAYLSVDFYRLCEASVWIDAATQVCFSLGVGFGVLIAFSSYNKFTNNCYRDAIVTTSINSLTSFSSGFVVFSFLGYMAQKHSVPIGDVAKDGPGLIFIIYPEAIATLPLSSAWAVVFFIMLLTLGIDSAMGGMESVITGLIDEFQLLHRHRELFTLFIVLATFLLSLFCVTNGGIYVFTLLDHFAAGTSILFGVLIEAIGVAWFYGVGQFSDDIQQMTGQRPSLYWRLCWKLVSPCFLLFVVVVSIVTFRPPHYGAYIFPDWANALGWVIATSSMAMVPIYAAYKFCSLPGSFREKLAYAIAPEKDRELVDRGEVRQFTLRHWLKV

| Structure (SMILES) | Ki [1] | IC50 [1] | IC50 [2] | IC50 [3] | Ki [2] | Ki [3] |
| --- | --- | --- | --- | --- | --- | --- |
| CCCCC1=C(c2ccc(Cl)cc2)C2CCN1CC2 | 14 nM |  |  |  |  |  |
| CN1[C@H]2CC[C@@H]1[C@@H](C(=O)N1CCCC1)[C@@H](c1ccc(I)cc1)C2 |  | 0.37 nM | 991 nM | 1730 nM |  |  |
| CN(C)C[C@H]1C2CCC(CC2)[C@H]1c1ccc(Cl)c(Cl)c1 | 7.2 nM |  |  |  | 57 nM | 44 nM |
| COC(=O)[C@@H]1C2CCC(C[C@@H]1c1ccc(C)cc1)N2C/C=C/CF (some centres undefined) |  | 2.4 nM | > 1000 nM | > 1000 nM |  |  |
| COC(=O)[C@H]1[C@@H](c2ccc(C)cc2)C[C@H]2CC[C@@H]1N2C/C=C/I | 17 nM |  |  |  | 500 nM | > 1000 nM |
| NCCN1[C@@H]2CC[C@H]1C[C@@H](NC(c1ccc(F)cc1)c1ccc(F)cc1)C2 | 12.5 nM |  |  |  |  |  |
